Assay results from PMC4673880, “Structure and substrate selectivity of the 750-kDa α6β6 holoenzyme of geranyl-CoA carboxylase” (Nature Communications, 2015).

Biological target: T1, PfGCC (geranyl-CoA carboxylase holoenzyme, α6β6) (Pseudomonas protegens, UniProt Q4K8Z5)
T1 construct: gene atuC; bicistronic; beta N-terminal His6-tagged (tag not removed), alpha untagged; expressed in E. coli BL21 Star (DE3); 750-kDa α6β6 dodecamer; with Geranyl-CoA carboxylase alpha subunit (biotin-containing; BC, BT and BCCP domains)
Assay: coupled pyruvate kinase / lactate dehydrogenase assay, ATP hydrolysis as NADH loss at […] nm
Assay type: biochemical
Conditions: pH 8.0, 0.5 mM ATP, 8 mM MgCl2, 40 mM KHCO3, 250 mM KCl; cis/trans mixture, only ~25% cis, concentration counted as total; read-out: apparent Km

**Q.** With geranyl-CoA as the substance, how does the Km read?
**A.** Its Km is 50 µM.
